Data taken from patent US7851474B2, “Dipiperazinyl ketones and related analogues” (Neurogen Corporation, priority 2005, dated 2010).
pKi: −log10 of the molar value.

molecular target: T1, chimeric human H3 receptor (Homo sapiens, UniProt Q9Y5N1, E19D); test: Chimeric human H3 receptor GTP binding assay (agonist-stimulated GTP-gamma35S binding, Example 7); format: biochemical; details: not given
T1 construct: made in house; host or cells: Sf9 insect cells (baculovirus infection); P2 membrane preparation
Outline: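 Sf9 membranes co-expressing the chimeric receptor and heterotrimeric G-protein subunits, 35 μg protein per tube, in pH 7.4 Tris buffer with 10 μM GDP. Test compounds at 10^−10 to 10^−6 M with 1 μM histamine, 60 min at room temperature. Filter-bound GTP-gamma^35S read by scintillation; IC50 from non-linear regression of dose-response curves.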

T1 sequence (Q9Y5N1 with tags, fused parts or gaps E19D): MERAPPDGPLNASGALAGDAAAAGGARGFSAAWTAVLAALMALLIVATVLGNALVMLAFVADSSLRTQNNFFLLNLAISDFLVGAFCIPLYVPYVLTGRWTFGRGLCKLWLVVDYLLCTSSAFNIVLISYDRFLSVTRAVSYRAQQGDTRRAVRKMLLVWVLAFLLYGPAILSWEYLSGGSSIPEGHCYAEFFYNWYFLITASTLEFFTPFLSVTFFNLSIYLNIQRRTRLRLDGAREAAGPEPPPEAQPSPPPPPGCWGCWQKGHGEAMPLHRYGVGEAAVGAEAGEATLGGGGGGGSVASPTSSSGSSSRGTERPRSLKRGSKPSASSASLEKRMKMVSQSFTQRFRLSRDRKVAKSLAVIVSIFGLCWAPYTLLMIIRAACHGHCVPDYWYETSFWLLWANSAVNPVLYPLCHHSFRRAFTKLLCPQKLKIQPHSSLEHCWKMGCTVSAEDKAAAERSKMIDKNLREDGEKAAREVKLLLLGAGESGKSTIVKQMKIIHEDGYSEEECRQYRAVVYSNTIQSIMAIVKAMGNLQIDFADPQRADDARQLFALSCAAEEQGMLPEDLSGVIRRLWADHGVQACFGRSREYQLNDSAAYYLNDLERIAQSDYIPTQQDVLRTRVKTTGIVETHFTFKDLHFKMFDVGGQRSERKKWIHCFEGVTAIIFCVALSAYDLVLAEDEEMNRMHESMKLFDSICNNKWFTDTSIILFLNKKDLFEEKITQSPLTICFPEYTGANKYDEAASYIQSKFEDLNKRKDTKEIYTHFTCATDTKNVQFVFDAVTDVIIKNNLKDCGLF

SMILES | pKi
CC(C)N1CCN(C(=O)CN2CCN(c3ccccc3)CC2)CC1 [Compound 847, 1-isopropyl-4-[(4-phenylpiperazin-1-yl)acetyl]piperazine] | > 6.00
CCC(C)N1CCN(C(=O)CN2CCN(c3ccccc3F)CC2)CC1 (stereo not shown) [Compound 867, 1-sec-butyl-4-{[4-(2-fluorophenyl)piperazin-1-yl]acetyl}piperazine] | > 6.00
CCC(C)N1CCN(C(=O)CN2CCN(c3ccccc3C)CC2)CC1 (stereo not shown) [Compound 868, 1-sec-butyl-4-{[4-(2-methylphenyl)piperazin-1-yl]acetyl}piperazine] | > 6.00
CCC(C)N1CCN(C(=O)CN2CCN(c3cccc(Cl)c3)CC2)CC1 (stereo not shown) [Compound 873, 1-sec-butyl-4-{[4-(3-chlorophenyl)piperazin-1-yl]acetyl}piperazine] | > 6.00

same assay, conditions: Table II "Ki", symbol "*": Ki in the assay of Example 7; read-out: Ki

SMILES | pKi
Cc1ccc(N2CCN(CC(=O)N3CCN(C(C)C)CC3)CC2)cc1 [Compound 850, 1-isopropyl-4-{[4-(4-methylphenyl)piperazin-1-yl]acetyl}piperazine] | > 6.00
CC(C)N1CCN(C(=O)CN2CCN(c3ccc([N+](=O)[O-])cc3)CC2)CC1 [Compound 851, 1-isopropyl-4-{[4-(4-nitrophenyl)piperazin-1-yl]acetyl}piperazine] | > 6.00
CC(C)N1CCN(C(=O)CN2CCN(C(=O)C3CCCO3)CC2)CC1 (stereo not shown) [Compound 852, 1-isopropyl-4-{[4-(tetrahydrofuran-2-ylcarbonyl)piperazin-1-yl]acetyl}piperazine] | > 6.00
CCC(C)N1CCN(C(=O)CN2CCN(c3cccc(C(F)(F)F)c3)CC2)CC1 (stereo not shown) [Compound 853, 1-sec-butyl-4-({4-[3-(trifluoromethyl)phenyl]piperazin-1-yl}acetyl)piperazine] | > 6.00
CCC(C)N1CCN(C(=O)CN2CCN(c3ccc(C(F)(F)F)cc3)CC2)CC1 (stereo not shown) [Compound 854, 1-sec-butyl-4-({4-[4-(trifluoromethyl)phenyl]piperazin-1-yl}acetyl)piperazine] | > 6.00
CCC(C)N1CCN(C(=O)CN2CCN(c3ccc(Cl)c(C(F)(F)F)c3)CC2)CC1 (stereo not shown) [Compound 855, 1-sec-butyl-4-({4-[4-chloro-3-(trifluoromethyl)phenyl]piperazin-1-yl}acetyl)piperazine] | > 6.00
CCC(C)N1CCN(C(=O)CN2CCN(c3ccc(F)c(C(F)(F)F)c3)CC2)CC1 (stereo not shown) [Compound 856, 1-sec-butyl-4-({4-[4-fluoro-3-(trifluoromethyl)phenyl]piperazin-1-yl}acetyl)piperazine] | > 6.00
CCC(C)N1CCN(C(=O)CN2CCC(N3CCCC3)CC2)CC1 (stereo not shown) [Compound 858, 1-sec-butyl-4-[(4-pyrrolidin-1-ylpiperidin-1-yl)acetyl]piperazine] | > 6.00
CCC(C)N1CCN(C(=O)CN2CCN(c3cccc(C)c3C)CC2)CC1 (stereo not shown) [Compound 860, 1-sec-butyl-4-{[4-(2,3-dimethylphenyl)piperazin-1-yl]acetyl}piperazine] | > 6.00
CCC(C)N1CCN(C(=O)CN2CCN(c3ccc(F)cc3F)CC2)CC1 (stereo not shown) [Compound 861, 1-sec-butyl-4-{[4-(2,4-difluorophenyl)piperazin-1-yl]acetyl}piperazine] | > 6.00
CCC(C)N1CCN(C(=O)CN2CCN(c3ccc(OC)cc3OC)CC2)CC1 (stereo not shown) [Compound 862, 1-sec-butyl-4-{[4-(2,4-dimethoxyphenyl)piperazin-1-yl]acetyl}piperazine] | > 6.00
CCC(C)N1CCN(C(=O)CN2CCN(c3ccc(C)cc3C)CC2)CC1 (stereo not shown) [Compound 863] | > 6.00
CCC(C)N1CCN(C(=O)CN2CCN(c3cc(C)ccc3C)CC2)CC1 (stereo not shown) [Compound 864, 1-sec-butyl-4-{[4-(2,5-dimethylphenyl)piperazin-1-yl]acetyl}piperazine] | > 6.00
CCC(C)N1CCN(C(=O)CN2CCN(c3c(C)cccc3C)CC2)CC1 (stereo not shown) [Compound 865, 1-sec-butyl-4-{[4-(2,6-dimethylphenyl)piperazin-1-yl]acetyl}piperazine] | > 6.00
CCC(C)N1CCN(C(=O)CN2CCN(c3ccc(OC)c(OC)c3)CC2)CC1 (stereo not shown) [Compound 870, 1-sec-butyl-4-{[4-(3,4-dimethoxyphenyl)piperazin-1-yl]acetyl}piperazine] | > 6.00
CCC(C)N1CCN(C(=O)CN2CCN(c3ccc(C)c(C)c3)CC2)CC1 (stereo not shown) [Compound 871, 1-sec-butyl-4-{[4-(3,4-dimethylphenyl)piperazin-1-yl]acetyl}piperazine] | > 6.00
CCC(C)N1CCN(C(=O)CN2CCN(c3cc(Cl)cc(Cl)c3)CC2)CC1 (stereo not shown) [Compound 872, 1-sec-butyl-4-{[4-(3,5-dichlorophenyl)piperazin-1-yl]acetyl}piperazine] | > 6.00
CCC(C)N1CCN(C(=O)CN2CCN(c3cccc(OC)c3)CC2)CC1 (stereo not shown) [Compound 875, 1-sec-butyl-4-{[4-(3-methoxyphenyl)piperazin-1-yl]acetyl}piperazine] | > 6.00
CCC(C)N1CCN(C(=O)CN2CCN(c3ccc(F)cc3)CC2)CC1 (stereo not shown) [Compound 880, 1-sec-butyl-4-{[4-(4-fluorophenyl)piperazin-1-yl]acetyl}piperazine] | > 6.00
CCC(C)N1CCN(C(=O)CN2CCN(c3ccc(OC)cc3)CC2)CC1 (stereo not shown) [Compound 881, 1-sec-butyl-4-{[4-(4-methoxyphenyl)piperazin-1-yl]acetyl}piperazine] | > 6.00
CCC(C)N1CCN(C(=O)CN2CCN(c3ccc(C)cc3)CC2)CC1 (stereo not shown) [Compound 882, 1-sec-butyl-4-{[4-(4-methylphenyl)piperazin-1-yl]acetyl}piperazine] | > 6.00
CCC(C)N1CCN(C(=O)CN2CCN(c3ccc([N+](=O)[O-])cc3)CC2)CC1 (stereo not shown) [Compound 883, 1-sec-butyl-4-{[4-(4-nitrophenyl)piperazin-1-yl]acetyl}piperazine] | > 6.00

The next lines start with the values.

pKi | SMILES
> 6.00 | CC(C)N1CCN(C(=O)CN2CCN(c3ccc(C(F)(F)F)cn3)CC2)CC1 [Compound 846, 1-isopropyl-4-({4-[5-(trifluoromethyl)pyridin-2-yl]piperazin-1-yl}acetyl)piperazine]
> 6.00 | CCC(C)N1CCN(C(=O)CN2CCN(c3ccccc3)CC2)CC1 (stereo not shown) [Compound 857, 1-sec-butyl-4-[(4-phenylpiperazin-1-yl)acetyl]piperazine]
> 6.00 | CCC(C)N1CCN(C(=O)CN2CCN(c3cccc(Cl)c3Cl)CC2)CC1 (stereo not shown) [Compound 859, 1-sec-butyl-4-{[4-(2,3-dichlorophenyl)piperazin-1-yl]acetyl}piperazine]
> 6.00 | CCC(C)N1CCN(C(=O)CN2CCN(c3ccccc3Cl)CC2)CC1 (stereo not shown) [Compound 866, 1-sec-butyl-4-{[4-(2-chlorophenyl)piperazin-1-yl]acetyl}piperazine]
> 6.00 | CCC(C)N1CCN(C(=O)CN2CCN(c3ccc(Cl)c(Cl)c3)CC2)CC1 (stereo not shown) [Compound 869, 1-sec-butyl-4-{[4-(3,4-dichlorophenyl)piperazin-1-yl]acetyl}piperazine]
> 6.00 | CCC(C)N1CCN(C(=O)CN2CCN(c3cccc(F)c3)CC2)CC1 (stereo not shown) [Compound 874, 1-sec-butyl-4-{[4-(3-fluorophenyl)piperazin-1-yl]acetyl}piperazine]
> 6.00 | CCC(C)N1CCN(C(=O)CN2CCN(c3cccc(C)c3)CC2)CC1 (stereo not shown) [Compound 876, 1-sec-butyl-4-{[4-(3-methylphenyl)piperazin-1-yl]acetyl}piperazine]
> 6.00 | CCC(C)N1CCN(C(=O)CN2CCN(c3ccc(Cl)c(OC)c3)CC2)CC1 (stereo not shown) [Compound 877, 1-sec-butyl-4-{[4-(4-chloro-3-methoxyphenyl)piperazin-1-yl]acetyl}piperazine]
> 6.00 | CCC(C)N1CCN(C(=O)CN2CCN(c3ccc(Cl)c(C)c3)CC2)CC1 (stereo not shown) [Compound 878, 1-sec-butyl-4-{[4-(4-chloro-3-methylphenyl)piperazin-1-yl]acetyl}piperazine]
> 6.00 | CCC(C)N1CCN(C(=O)CN2CCN(c3ccc(Cl)cc3)CC2)CC1 (stereo not shown) [Compound 879, 1-sec-butyl-4-{[4-(4-chlorophenyl)piperazin-1-yl]acetyl}piperazine]
> 6.00 | CCC(C)N1CCN(C(=O)CN2CCN(c3cc(Cl)ccc3OC)CC2)CC1 (stereo not shown) [Compound 884, 1-sec-butyl-4-{[4-(5-chloro-2-methoxyphenyl)piperazin-1-yl]acetyl}piperazine]
> 6.00 | CCC(C)N1CCN(C(=O)CN2CCN(c3cc(Cl)ccc3C)CC2)CC1 (stereo not shown) [Compound 885, 1-sec-butyl-4-{[4-(5-chloro-2-methylphenyl)piperazin-1-yl]acetyl}piperazine]
> 6.00 | O=C(CN1CCN(c2cnc(-c3ccc4c(c3)OCO4)cn2)CC1)N1CCN(C2CCC2)CC1 [Compound 896, 2-(1,3-benzodioxol-5-yl)-5-{4-[2-(4-cyclobutylpiperazin-1-yl)-2-oxoethyl]piperazin-1-yl}pyrazine]
> 6.00 | Cc1ccc(F)c(-c2cnc(N3CCN(CC(=O)N4CCN(C5CCC5)CC4)CC3)cn2)c1Cl [Compound 897, 2-(2-chloro-6-fluoro-3-methylphenyl)-5-{4-[2-(4-cyclobutylpiperazin-1-yl)-2-oxoethyl]piperazin-1-yl}pyrazine]
> 6.00 | O=C(CN1CCN(c2cnc(-c3ccccc3Cl)cn2)CC1)N1CCN(C2CCC2)CC1 [Compound 898, 2-(2-chlorophenyl)-5-{4-[2-(4-cyclobutylpiperazin-1-yl)-2-oxoethyl]piperazin-1-yl}pyrazine]
> 6.00 | O=C(CN1CCN(c2cnc(-c3ccc(F)c(Cl)c3)cn2)CC1)N1CCN(C2CCC2)CC1 [Compound 899, 2-(3-chloro-4-fluorophenyl)-5-{4-[2-(4-cyclobutylpiperazin-1-yl)-2-oxoethyl)piperazin-1-yl}pyrazine]
> 6.00 | O=C(CN1CCN(c2cnc(-c3cccc(Cl)c3)cn2)CC1)N1CCN(C2CCC2)CC1 [Compound 900, 2-(3-chlorophenyl)-5-{4-[2-(4-cyclobutylpiperazin-1-yl)-2-oxoethyl]piperazin-1-yl}pyrazine]
